Results on one molecule are retold here after ChEMBL document CHEMBL1129719, “The synthesis of a radioligand with high potency and selectivity for CCKB/ gastrin receptors” (Bioorg Med Chem Lett, 1996).

The species named for experiment [1] is Rattus norvegicus. In words: Bmax value was determined in rat cerebral cortical membranes.
Experiment [2] is filed under the species Rattus norvegicus. The experiment in a line: pKD value in rat cerebral cortical membranes. Format: functional.
For experiment [3], the target named is T1, Gastrin/cholecystokinin type B receptor (Rattus norvegicus, UniProt P30553).
T1 sequence (P30553 whole entry): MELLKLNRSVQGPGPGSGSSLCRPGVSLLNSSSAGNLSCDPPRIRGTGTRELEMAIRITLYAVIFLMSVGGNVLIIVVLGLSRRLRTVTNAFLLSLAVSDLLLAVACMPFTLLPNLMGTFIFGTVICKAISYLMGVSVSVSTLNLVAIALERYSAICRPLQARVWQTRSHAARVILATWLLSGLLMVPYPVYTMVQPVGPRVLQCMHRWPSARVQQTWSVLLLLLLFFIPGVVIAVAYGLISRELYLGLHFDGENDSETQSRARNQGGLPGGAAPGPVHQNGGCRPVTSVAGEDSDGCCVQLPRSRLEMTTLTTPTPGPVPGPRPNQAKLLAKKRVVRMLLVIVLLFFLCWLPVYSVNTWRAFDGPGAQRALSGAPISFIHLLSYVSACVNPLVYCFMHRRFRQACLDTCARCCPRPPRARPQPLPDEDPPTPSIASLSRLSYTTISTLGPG
In words: Compound was tested for binding affinity against Cholecystokinin type B receptor in rat cortical membranes using L-365260 as the radioligand. Format: cell membranes.

By pKD is commonly meant the negative decadic logarithm of the KD, by convention in mol/L. Lower therefore signals a high KD. A word on the Ki: it is the equilibrium dissociation constant of an inhibitor or competing ligand from its target. A higher Ki goes with lower affinity.

The molecule `O=C(O)c1cc(NC(=O)[C@H](Cc2ccccc2)NC(=O)c2cc3cc[nH]c3cc2C(=O)NCC23CC4CC(CC(C4)C2)C3)cc(C(=O)O)c1` showed a Bmax in experiment [1] of 3.61 pM/g. This molecule had a negative-log KD (pKD) in experiment [2] of 9.48. The inhibition constant Ki in experiment [3] is 23.4 nM.
